Patent publication US12133838B2, “Homotaurine-enriched compositions and methods of use for animal health” (FB Maria srl, priority 2015, dated 2024)

What was measured:
young adult dogs = assay: cognitive learning test in a maze, young adult dogs; format: in vivo, dog; conditions: young dogs (under 6 years of age), homotaurine 1 g/subject PO SID
Text: (§1) The experiment began by selecting two groups of elderly dogs (age more than 10 years, 16 subjects per group) and two groups of young adult dogs (between 3 and 6 years of age, 6 subjects per group), who were divided randomly balancing them per age, seniority, and size. The dogs underwent a cognitive learning tests (Spatial reversal learning is impaired by aging in pet dogs, P. Mongillo et al., Age, 2013, 35 (6): 2273-2282), in a simple maze built to this trial. Passing the test consisted in the dog's ability to learn to get out of the labyrinth in the direction that he himself had chosen in the first successful attempt. The number of attempts has been the test score: the lower the number of attempts, better cognitive performance. Immediately after the test, two groups of dogs (one old and one young) started to receive food integration of homotaurine capsules. Homotaurine at was administered orally once daily (PO SID) at a dose of 1 g/subject. After 4 months of homotaurine supplementation, initial learning test was repeated, with the same modalities of the initial test.

elderly dogs = assay: cognitive learning test in a maze, elderly dogs; format: in vivo, dog; conditions: for Average number of wrong tries of the aged dogs able to pass the learning test (average score) / Percentage of the aged dogs able to pass the learning test: dogs more than 10 years
Text: as §1, with “After 15 days the dogs underwent a memory test (learning result application of first test) and, if they have passed the test, to a subsequent reverse learning test, which consisted in learning to exit the labyrinth from the opposite direction to that previously learned within a defined number of trials. After” for “After”, “test. The first evaluable results regarding the comparison between the cognitive learning tests, carried out on two groups of dogs over 10 years of age, a period in which aging-correlated brain behavior changes can be observed.” for “test.”

[1] = 1° test, before start of homotaurine
[2] = 2° test, after 4 months of homotaurine 1 g/subject PO SID

`NCCCS(=O)(=O)O` [homotaurine, 3-amino-1-propanesulfonic acid] was tested, and the “change of average score” value (young adult dogs) was −2.6, the “Average number of wrong tries of the aged dogs able to pass the learning test (average score)” value (elderly dogs; [1]) was 6.67 and the “Percentage of the aged dogs able to pass the learning test” value (elderly dogs; [1]) was 75%. For the same compound, the “Average number of wrong tries of the aged dogs able to pass the learning test (average score)” value (elderly dogs; [2]) was 5.67, the “Percentage of the aged dogs able to pass the learning test” value (elderly dogs; [2]) was 75% and the “change of average score, second versus first test” value (elderly dogs; aged dogs, about four months of homotaurine 1 g/subject PO SID) was −1.0. The “failures in the learning test” value (elderly dogs; first test, before start of homotaurine, aged dogs) was 25% and the “failures in the learning test” value (elderly dogs; second test, about four months later, 1 g/subject PO SID, aged dogs) was 25%.
